Source: patent US9770452B2, “Quinoxaline derivatives as GPR6 modulators” (Takeda Pharmaceutical Company Limited, priority 2012, dated 2017)
Where a name gives a salt, the structure may show the parent alone.

Biological target: T1, GPR6 receptor (Homo sapiens, UniProt P46095)
T1 construct: expressed in transfected cells
Test: Inhibition of cAMP Activity of GPR6 In Vitro Assay (CHO-K1 cells, HTRF cAMP)
Assay type: cell-based
Details: compounds of Compound Table 1; inhibition of constitutive cAMP activity of GPR6 expressed in CHO-K1 cells; approximate IC50; read-out: IC50
Method: Inhibition of cAMP Activity of GPR6 In Vitro Assay
This cell based assay measures the ability of compounds to inhibit the constitutive cAMP activity of GPR6 receptor expressed in CHO-K1 cells. CHO cells were stably expressed with GPR6 receptor, whose expression is controlled by a tetracycline inducable element. The cells were cultured in medium containing F12K, 10% FBS, 1% Penn/Strep, 200 ug/mL Hygromycin. GPR6 receptor expression was induced for 20 hrs with 1 μg/ml doxycycline (sigma D9891) in growth media. After addition of doxycycline cells were plated at a density of 250-500 cells per well in half-volume black clear bottom plates (Costar) and place in an incubator (37°, 5% C(O)2) for 20 hours prior to cAMP assays.
Culture media was removed from cells and they were washed with 50 μL of Ringer's Buffer (MgCl2 0.047 mg/mL, NaH2PO4 0.18 mg/mL, Na2HPO4 0.1 mg/mL, KCl 0.34 mg/mL, NaHC(O)3 1.26 mg/mL, D-glucose 1.8 mg/mL, NaCl 7 mg/mL; pH=7.4). Compounds suspended in DMSO were diluted in Ringer's Buffer containing 0.5% fatty acid free BSA and incubated on cells for 45 min at […] and 5% C(O)2. After incubation cells were incubated for 10 min at room temp with Eu-cAMP tracer solution from a Perkin Elmer Lance HTRF UltracAMP assay kit (TRF0264). Then ULight™-anti-cAMP solution from the Lance HTRF kit was added and incubated on a shaker at room temp for 1 hour prior to HTRF detection in a BMG PolarStar Omega.
IC50 curves were generated with a four-parameter logistic equation using GraphPad Prism 5.03.

T1 sequence (P46095 whole entry): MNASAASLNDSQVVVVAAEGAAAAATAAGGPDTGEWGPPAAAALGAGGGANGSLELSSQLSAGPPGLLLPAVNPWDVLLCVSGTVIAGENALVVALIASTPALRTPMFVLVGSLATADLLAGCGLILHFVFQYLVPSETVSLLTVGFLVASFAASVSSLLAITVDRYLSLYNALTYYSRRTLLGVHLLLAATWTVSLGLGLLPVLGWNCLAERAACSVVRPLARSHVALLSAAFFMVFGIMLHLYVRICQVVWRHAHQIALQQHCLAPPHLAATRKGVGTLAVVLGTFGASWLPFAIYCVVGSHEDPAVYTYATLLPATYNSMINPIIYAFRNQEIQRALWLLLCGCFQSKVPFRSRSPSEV

Compound | IC50 [nM]
3-(4-((5-chloro-2-fluorophenyl)fluoromethyl)piperidin-1-yl)-N-cyclopropylpyrido[3,4-b]pyrazin-2-amine [Cpd 452] | 21
3-(cyclopropylamino)-2-(4-(2,5-dichlorobenzyl)piperazin-1-yl)quinoxaline-5-carbonitrile, 2,2,2-trifluoroacetic acid salt [Cpd 248] | 1850
3-(cyclopropylamino)-2-(4-((2,5-difluorophenyl)fluoromethyl)piperidin-1-yl)quinoxaline-6-carbonitrile, 2,2,2-trifluoroacetic acid salt [Cpd 484] | 29
3-fluoro-4-((1-(3-(isopropylamino)pyrazino[2,3-d]pyridazin-2-yl)piperidin-4-yl)oxy)benzonitrile, 2,2,2-trifluoroacetic acid salt [Cpd 639] | 30
3-fluoro-4-((1-(3-(isopropylamino)pyrazino[2,3-d]pyridazin-2-yl)piperidin-4-yl)oxy)phenol, 2,2,2-trifluoroacetic acid salt [Cpd 648] | 65
4-((1-(2-(cyclopropylamino)pyrido[3,4-b]pyrazin-3-yl)piperidin-4-yl)oxy)-3-fluorophenol, 2,2,2-trifluoroacetic acid salt [Cpd 615] | 88
4-((1-(2-(cyclopropylamino)pyrido[3,4-b]pyrazin-3-yl)piperidin-4-yl)oxy)-N,N-dimethylbenzamide, 2,2,2-trifluoroacetic acid salt [Cpd 588] | 2740
4-((1-(3-(cyclopropylamino)pyrazino[2,3-d]pyridazin-2-yl)piperidin-4-yl)oxy)-3-fluorophenol [Cpd 623] | 39
4-chloro-3-(1-(7-chloro-2-(cyclopropylamino)pyrido[3,4-b]pyrazin-3-yl)piperidine-4-carbonyl)benzonitrile [Cpd 595] | 478
5-chloro-1-((1-(2-(cyclopropylamino)pyrido[3,4-b]pyrazin-3-yl)piperidin-4-yl)methyl)pyridin-2(1H)-one [Cpd 532] | 380
6-bromo-N-cyclopropyl-3-(4-(2,4-difluorobenzyl)piperidin-1-yl)quinoxalin-2-amine, 2,2,2-trifluoroacetic acid salt [Cpd 495] | 18
6-bromo-N-cyclopropyl-3-(4-((2,5-difluorophenyl)fluoromethyl)piperidin-1-yl)quinoxalin-2-amine, 2,2,2-trifluoroacetic acid salt [Cpd 500] | 160
7-chloro-N-cyclopropyl-3-(4-(2,4-difluorobenzyl)piperidin-1-yl)pyrido[3,4-b]pyrazin-2-amine [Cpd 592] | 26
7-chloro-N-cyclopropyl-3-(4-(2,4-difluorophenoxy)piperidin-1-yl)pyrido[3,4-b]pyrazin-2-amine, 2,2,2-trifluoroacetic acid salt [Cpd 476] | 15
7-chloro-N-cyclopropyl-3-(4-((2,4-difluorophenyl)fluoromethyl)piperidin-1-yl)pyrido[3,4-b]pyrazin-2-amine, 2,2,2-trifluoroacetic acid salt [Cpd 489] | 7
8-bromo-N-cyclopropyl-3-(4-(2,5-dichlorobenzyl)piperazin-1-yl)quinoxalin-2-amine, 2,2,2-trifluoroacetic acid salt [Cpd 133] | 32

Compound | IC50 [nM]
8-chloro-3-(4-(5-chloro-2-fluorobenzyl)piperazin-1-yl)-N-cyclopropylpyrido[3,4-b]pyrazin-2-amine, 2,2,2-trifluoroacetic acid salt [Cpd 351] | 62
8-chloro-N-cyclopropyl-3-(4-((2,5-difluorophenyl)fluoromethyl)piperidin-1-yl)pyrido[3,4-b]pyrazin-2-amine, 2,2,2-trifluoroacetic acid salt [Cpd 486] | 98
Cc1cccc(CN2CCN(c3nc4ccccc4nc3NC3CC3)CC2)c1 [Cpd 1, N-cyclopropyl-3-(4-(3-methylbenzyl)piperazin-1-yl)quinoxalin-2-amine, 2,2,2-trifluoroacetic acid salt] | 17700
Cc1cccc(CN2CCN(c3nc4cccnc4nc3NC3CC3)CC2)c1 [Cpd 2, N-cyclopropyl-2-(4-(3-methylbenzyl)piperazin-1-yl)pyrido[2,3-b]pyrazin-3-amine, 2,2,2-trifluoroacetic acid salt] | 45400
Cc1cccc(CN2CCN(c3nc4ncccc4nc3NC3CC3)CC2)c1 [Cpd 3, N-cyclopropyl-3-(4-(3-methylbenzyl)piperazin-1-yl)pyrido[2,3-b]pyrazin-2-amine] | 24600
Clc1cccc(CN2CCN(c3nc4ccccc4nc3NC3CC3)CC2)c1 [Cpd 5, 3-(4-(3-chlorobenzyl)piperazin-1-yl)-N-cyclopropylquinoxalin-2-amine, 2,2,2-trifluoroacetic acid salt] | 40600
COc1ccc(C(=O)N2CCN(c3nc4ccccc4nc3NC3CC3)CC2)cc1Cl [Cpd 9, (3-chloro-4-methoxyphenyl)(4-(3-(cyclopropylamino)quinoxalin-2-yl)piperazin-1-yl)methanone, 2,2,2-trifluoroacetic acid salt] | 10100
c1ccc2nc(N3CCN(Cc4ccncc4)CC3)c(NC3CC3)nc2c1 [Cpd 17, N-cyclopropyl-3-(4-(pyridin-4-ylmethyl)piperazin-1-yl)quinoxalin-2-amine, 2,2,2-trifluoroacetic acid salt] | 25900
c1ccc(CN2CCN(c3nc4ccccc4nc3NC3CC3)CC2)nc1 [Cpd 20, N-cyclopropyl-3-(4-(pyridin-2-ylmethyl)piperazin-1-yl)quinoxalin-2-amine, 22,2,2-trifluoroacetic acid salt] | 69200
Clc1cccc(CN2CCN(c3nc4ccccc4nc3Nc3ccc(Br)cc3)CC2)c1 [Cpd 21, N-(4-bromophenyl)-3-(4-(3-chlorobenzyl)piperazin-1-yl)quinoxalin-2-amine, 2,2,2-trifluoroacetic acid salt] | 3030
Clc1cccc(CN2CCN(c3nc4cccnc4nc3Nc3ccccc3)CC2)c1 [Cpd 22, 2-(4-(3-chlorobenzyl)piperazin-1-yl)-N-phenylpyrido[2,3-b]pyrazin-3-amine, 2,2,2-trifluoroacetic acid salt] | 7670
Cc1ccc(Nc2nc3ccccc3nc2N2CCN(Cc3cccc(Cl)c3)CC2)cc1 [Cpd 30, 3-(4-(3-chlorobenzyl)piperazin-1-yl)-N-(p-tolyl)quinoxalin-2-amine, 2,2,2-trifluoroacetic acid salt] | 26200
COc1ccc(Nc2nc3ccccc3nc2N2CCN(Cc3cccc(Cl)c3)CC2)cc1 [Cpd 31, 3-(4-(3-chlorobenzyl)piperazin-1-yl)-N-(4-methoxyphenyl)quinoxalin-2-amine, 2,2,2-trifluoroacetic acid salt] | 6140
Fc1ccc(Nc2nc3ccccc3nc2N2CCN(Cc3cccc(Cl)c3)CC2)cc1 [Cpd 38, 3-(4-(3-chlorobenzyl)piperazin-1-yl)-N-(4-fluorophenyl)quinoxalin-2-amine, 2,2,2-trifluoroacetic acid salt] | 5730
O=C(c1cc(Cl)ccc1Cl)N1CCN(c2nc3ccccc3nc2NC2CCCC2)CC1 [Cpd 39, (4-(3-(cyclopentylamino)quinoxalin-2-yl)piperazin-1-yl)(2,5-dichlorophenyl)methanone, 2,2,2-trifluoroacetic acid salt] | 6150

Same assay, conditions: compounds of Compound Table 2; inhibition of constitutive cAMP activity of GPR6 expressed in CHO-K1 cells; approximate IC50; read-out: IC50

Compound | IC50 [nM]
N#Cc1ccc2nc(NC3CC3)c(C3CCN(Cc4cc(Cl)ccc4Cl)CC3)nc2c1 [Compound Table 2: Cpd 3, 2-(cyclopropylamino)-3-(1-(2,5-dichlorobenzyl)piperidin-4-yl)quinoxaline-6-carbonitrile, 2,2,2-trifluoroacetic acid salt] | 840
Cc1cc2nc(NC3CC3)c(C3CCN(Cc4ccc(F)cc4F)CC3)nc2cn1 [Compound Table 2: Cpd 6, N-cyclopropyl-3-(1-(2,4-difluorobenzyl)piperidin-4-yl)-7-methylpyrido[3,4-b]pyrazin-2-amine, 2,2,2-trifluoroacetic acid salt] | 530
CC1CN(Cc2cc(Cl)ccc2Cl)CCN1c1nc2ccccc2nc1NC1CC1 (stereo not drawn) [Compound Table 2: Cpd 7, N-cyclopropyl-3-(4-(2,5-dichlorobenzyl)-2-methylpiperazin-1-yl)quinoxalin-2-amine] | 6640
CC1CN(C(=O)c2cc(Cl)ccc2Cl)CCN1c1nc2ccccc2nc1NC1CC1 (stereo not drawn) [Compound Table 2: Cpd 8, (4-(3-(cyclopropylamino)quinoxalin-2-yl)-3-methylpiperazin-1-yl)(2,5-dichlorophenyl)methanone, 2,2,2-trifluoroacetic acid salt] | 79600
CC(C)C1CN(c2nc3ccccc3nc2NC2CC2)CCN1Cc1cc(Cl)ccc1Cl (stereo not drawn) [Compound Table 2: Cpd 9, N-cyclopropyl-3-(4-(2,5-dichlorobenzyl)-3-isopropylpiperazin-1-yl)quinoxalin-2-amine] | 17700
